Assay results taken from ChEMBL document CHEMBL5046238, “Synthesis, biological evaluation, and in silico studies of potential activators of apoptosis and carbonic anhydrase inhibitors on isatin-5-sulfonamide scaffold” (Eur J Med Chem, 2022).
Active and inactive are the calls of the source. No cut-off for these calls is given here.

How the values were obtained:
[1] = Antiproliferative activity against human K562/4 cells assessed as growth inhibition measured after 72 hrs by MTT assay; conditions: K562/4, 72 h
MCF7 [2] = assay: Antiproliferative activity against human MCF7 cells assessed as growth inhibition measured after 72 hrs by MTT assay; conditions: MCF7, 72 h
K562 = assay: Antiproliferative activity against human K562 cells assessed as growth inhibition measured after 72 hrs by MTT assay; conditions: K562, 72 h
Carbonic anhydrase 9 = Carbonic anhydrase 9 (Homo sapiens, UniProt Q16790); assay: Inhibition of human CA9 preincubated for 15 mins by phenol red dye based stopped flow CO2 hydration assay
HCT-116 [3] = assay: cells; conditions: Homo sapiens, HCT-116, 72 h
Description: Antiproliferative activity against human HCT-116 assessed as growth inhibition measured after 72 hrs by MTT assay

MCF7 [4] = assay: Antiproliferative activity against human MCF7 cells assessed as growth inhibition under hypoxia conditions measured after 72 hrs by MTT assay; conditions: MCF7, 72 h
MCF7 [5] = assay: Induction of apoptosis in human MCF7 cells assessed as decrease in ERalpha protein expression upto 5 uM measured after 48 hrs by immunoblotting analysis; format: functional, cell-based; conditions: dose microM <=5, time 48.0 hrs
Carbonic anhydrase 12 = Carbonic anhydrase 12 (Homo sapiens, UniProt O43570); assay: Inhibition of human CA12 preincubated for 15 mins by phenol red based stopped flow CO2 hydration assay
T47D [6] = assay: Antiproliferative activity against human T47D cells assessed as growth inhibition under normoxia conditions measured after 72 hrs by MTT assay
MDA-MB-231 [7] = assay: Antiproliferative activity against human MDA-MB-231 cells assessed as growth inhibition under normoxia conditions measured after 72 hrs by MTT assay; conditions: MDA-MB-231, 72 h
[8] = Cytotoxicity against human MCF-10A assessed as cell viability under hypoxia conditions measured after 72 hrs by MTT assay; format: toxicity, cell-based; conditions: MCF-10A cells
MCF7 [9] = assay: Induction of apoptosis in human MCF7 cells assessed as PARP cleavage upto 5 uM measured after 48 hrs by immunoblotting analysis; format: functional, cell-based; conditions: dose microM <=5, time 48.0 hrs
MCF7 [10] = assay: Induction of apoptosis in human MCF7 cells assessed as NFkappaB activity upto 5 uM measured after 48 hrs by immunoblotting analysis; format: functional, cell-based; conditions: dose microM <=5, time 48.0 hrs
MCF7 [11] = assay: Induction of apoptosis in human MCF7 cells assessed as […] in BAD protein expression upto 5 uM measured after 48 hrs by immunoblotting analysis; format: functional, cell-based; conditions: dose microM <=5, time 48.0 hrs
T47D [12] = assay: Antiproliferative activity against human T47D cells assessed as growth inhibition under hypoxia conditions measured after 72 hrs by MTT assay
[13] = Cytotoxicity against human MCF-10A assessed as cell viability under normoxia conditions measured after 72 hrs by MTT assay; format: toxicity, cell-based; conditions: MCF-10A cells
HCT-116 [14] = assay: Antiproliferative activity against human HCT-116p53KO subline assessed as growth inhibition measured after 72 hrs by MTT assay; conditions: HCT-116, 72 h
MDA-MB-231 [15] = assay: Antiproliferative activity against human MDA-MB-231 cells assessed as growth inhibition under hypoxia conditions measured after 72 hrs by MTT assay; conditions: MDA-MB-231, 72 h
MCF7 [16] = assay: Induction of apoptosis in human MCF7 cells assessed as decrease in Bcl2 expression upto 5 uM measured after 48 hrs by immunoblotting analysis; format: functional, cell-based; conditions: dose microM <=5, time 48.0 hrs

Carbonic anhydrase 12, sequence (O43570 whole entry): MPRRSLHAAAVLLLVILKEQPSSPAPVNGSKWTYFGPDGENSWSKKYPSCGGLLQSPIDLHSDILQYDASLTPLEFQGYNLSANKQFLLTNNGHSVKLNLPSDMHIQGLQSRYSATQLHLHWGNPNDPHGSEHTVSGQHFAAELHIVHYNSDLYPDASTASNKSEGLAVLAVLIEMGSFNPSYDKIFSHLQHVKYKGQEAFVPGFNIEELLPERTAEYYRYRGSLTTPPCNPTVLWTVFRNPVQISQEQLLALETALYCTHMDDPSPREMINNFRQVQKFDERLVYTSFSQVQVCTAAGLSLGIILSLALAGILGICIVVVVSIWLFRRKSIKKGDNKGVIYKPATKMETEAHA

SMILES	IC50 (MCF7 [2])	IC50 (K562)	Ki (Carbonic anhydrase 9)	IC50 (HCT-116 [3])	IC50 (MCF7 [4])	Ki (Carbonic anhydrase 12)	IC50 (T47D [6])	IC50 (MDA-MB-231 [7])	IC50 (T47D [12])	IC50 (HCT-116 [14])	IC50 (MDA-MB-231 [15])	IC50 [1]	Activity (MCF7 [5])	IC50 at 72 h [8]	Activity (MCF7 [9])	Activity (MCF7 [10])	Activity (MCF7 [11])	IC50 at 72 h [13]	Activity (MCF7 [16])
NS(=O)(=O)c1ccc2c(c1)C(=O)C(=O)N2Cc1cc(F)cc(F)c1	26.5 µM	35 µM	1.32 µM									37 µM							
NS(=O)(=O)c1ccc2c(c1)C(=O)C(=O)N2Cc1ccc(SC(F)(F)F)cc1	2.6 µM	4.5 µM	1.77 µM	14.5 µM	3.2 µM	> 10 µM	6.3 µM	6.9 µM	20.3 µM	15 µM	10.8 µM	6.5 µM	Dose-Dependent Effect	8.6 µM	Active	Active	inactive	6.4 µM	Active
NS(=O)(=O)c1ccc2c(c1)C(=O)C(=O)N2Cc1ccc(Cl)c(Cl)c1	6.1 µM	17 µM	1.46 µM	32 µM	5.9 µM		17.1 µM	21.8 µM	> 50 µM	31 µM	18.5 µM	> 50 µM		7.3 µM				6.6 µM	
NS(=O)(=O)c1ccc2c(c1)C(=O)C(=O)N2Cc1cccc(C(F)(F)F)c1	8.4 µM	9.8 µM	0.244 µM	17.7 µM	5.9 µM	> 10 µM	6.3 µM	14.2 µM	> 50 µM	30 µM	17.6 µM	19.8 µM							
NS(=O)(=O)c1ccc2c(c1)C(=O)C(=O)N2Cc1ccc(Cl)cc1Cl	7.8 µM	8.8 µM	0.163 µM	17.5 µM	5.6 µM		12 µM	7 µM	21.8 µM	20 µM	8.4 µM	18 µM							
NS(=O)(=O)c1ccc2c(c1)C(=O)C(=O)N2	> 50 µM	> 50 µM	1.46 µM									> 50 µM							
NS(=O)(=O)c1ccc2c(c1)C(=O)C(=O)N2Cc1ccccc1F	8.7 µM	18 µM	1.11 µM									20 µM							
Cc1ccc(CN2C(=O)C(=O)c3cc(S(N)(=O)=O)ccc32)cc1C	4.4 µM	8 µM	0.276 µM	17 µM	3.9 µM		9.4 µM	7.4 µM	11.1 µM	15 µM	9.4 µM	17 µM		6 µM				6.2 µM	
NS(=O)(=O)c1ccc2c(c1)C(=O)C(=O)N2Cc1ccc([N+](=O)[O-])cc1	> 50 µM	> 50 µM	2.04 µM									> 50 µM							
NS(=O)(=O)c1ccc2c(c1)C(=O)C(=O)N2Cc1c(F)cccc1Cl	12.8 µM	14.5 µM	0.204 µM									18 µM							
NS(=O)(=O)c1ccc2c(c1)C(=O)C(=O)N2CCc1ccccc1	31.8 µM	17.2 µM	1.81 µM									36 µM							
COc1ccc(CN2C(=O)C(=O)c3cc(S(N)(=O)=O)ccc32)cc1	5.1 µM	9 µM	1.03 µM	27 µM	4.6 µM		20.7 µM	28.4 µM	> 50 µM	30 µM	40.8 µM	43 µM		3.2 µM				4 µM	
NS(=O)(=O)c1ccc2c(c1)C(=O)C(=O)N2Cc1c(F)cccc1F	22.7 µM	17 µM	1.03 µM									40 µM							
NS(=O)(=O)c1ccc2c(c1)C(=O)C(=O)N2Cc1ccc(C(F)(F)F)cc1	8.2 µM	16 µM	0.811 µM	30 µM	5.5 µM		22.6 µM	27.1 µM	32.6 µM	34 µM	16.3 µM	50 µM							
NS(=O)(=O)c1ccc2c(c1)C(=O)C(=O)N2Cc1ccncc1	> 50 µM	> 50 µM	1.68 µM									> 50 µM							
NS(=O)(=O)c1ccc2c(c1)C(=O)C(=O)N2Cc1cc(C(F)(F)F)ccc1F	12 µM	9 µM	0.211 µM			> 10 µM						19.8 µM							
NS(=O)(=O)c1ccc2c(c1)C(=O)C(=O)N2Cc1ccc(Cl)cc1	6 µM	14 µM	0.26 µM	23 µM	4.9 µM		18.4 µM	22 µM	42.5 µM	30 µM	19.1 µM	50 µM		6.2 µM				6.9 µM	

More lines, main results first:

IC50 (MCF7 [2])	IC50 (K562)	Ki (Carbonic anhydrase 9)	IC50 (HCT-116 [3])	IC50 (MCF7 [4])	Ki (Carbonic anhydrase 12)	IC50 (T47D [6])	IC50 (MDA-MB-231 [7])	IC50 (T47D [12])	IC50 (HCT-116 [14])	IC50 (MDA-MB-231 [15])	SMILES	IC50 [1]	Activity (MCF7 [5])	IC50 at 72 h [8]	Activity (MCF7 [9])	Activity (MCF7 [10])	Activity (MCF7 [11])	IC50 at 72 h [13]	Activity (MCF7 [16])
10.2 µM	8 µM	0.195 µM									NS(=O)(=O)c1ccc2c(c1)C(=O)C(=O)N2Cc1c(F)c(F)c(F)c(F)c1F	> 50 µM							
17.3 µM	36 µM	0.24 µM									NS(=O)(=O)c1ccc2c(c1)C(=O)C(=O)N2Cc1ccc(F)cc1	> 50 µM							
0.31 µM			0.3 µM	0.37 µM		0.16 µM	0.33 µM	0.18 µM	0.8 µM	0.25 µM	COc1cccc2c1C(=O)c1c(O)c3c(c(O)c1C2=O)C[C@@](O)(C(=O)CO)C[C@@H]3O[C@H]1C[C@H](N)[C@H](O)[C@H](C)O1 [DOXORUBICIN]			0.051 µM				0.047 µM	
20.1 µM	18 µM	1.53 µM									NS(=O)(=O)c1ccc2c(c1)C(=O)C(=O)N2Cc1ccccc1	> 50 µM							
13.3 µM	11 µM	0.292 µM									NS(=O)(=O)c1ccc2c(c1)C(=O)C(=O)N2Cc1ccc(F)cc1Cl	32 µM							
26.8 µM	15.5 µM	2.53 µM			> 10 µM						NS(=O)(=O)c1ccc2c(c1)C(=O)C(=O)N2Cc1cccc(F)c1	50 µM							
9.2 µM	12.5 µM		18 µM	13.1 µM		> 50 µM	26.6 µM	> 50 µM	45 µM	25.7 µM	NS(=O)(=O)c1ccc2c(c1)CCC2NC(=O)c1c(F)c(F)c(F)c(F)c1F (stereo not drawn)	18 µM		> 50 µM				> 50 µM	
> 50 µM	20 µM		38 µM	> 50 µM			> 50 µM		> 50 µM	> 50 µM	O=C1C(=O)N(Cc2ccc(Cl)c(Cl)c2)c2ccccc21	48 µM	inactive		Active	inactive	Active		Active
